# Source: ChEMBL document CHEMBL1127108, “Synthesis of ecdysteroid inhibitors of ecdysone biosynthesis. Inhibition of the C-25 hydroxylation” (1993)
# Columns and labels:
# [1] = system: Locusta migratoria; test: In vitro inhibitory activity of compound on ecdysone biosynthesis in larval prothoracic glands of Locusta migratoria; NI: No inhibition was observed; type: functional
# [2] = system: Locusta migratoria; test: In vitro inhibitory activity of compound on ecdysone biosynthesis in larval prothoracic glands of Locusta migratoria at 10e-5 M concentration; type: functional
SMILES,inhibition [1],inhibition at 10 µM [2] [%]
CC(C1CCC2C3CC=C4C[C@@H](O)CC[C@]4(C)C3CC[C@@]21C)[C@@H](O)C#C[Si](C)(C)C (stereo not given in full),No inhibition,
C#CC[C@@H](O)C(C)C1CCC2C3CC=C4C[C@@H](O)CC[C@]4(C)C3CC[C@@]21C (stereo not given in full),,66
C#C[C@H](O)C(C)C1CCC2C3CC=C4C[C@@H](O)CC[C@]4(C)C3CC[C@@]21C (stereo not given in full),,36
C#CC[C@H](O)C(C)C1CC[C@H]2[C@@H]3CC=C4C[C@@H](O)CC[C@]4(C)[C@H]3CC[C@]12C (stereo not given in full),,37
C#CC[C@@H](O)C(C)C1CC[C@H]2[C@@H]3CC=C4C[C@@H](O)CC[C@]4(C)[C@H]3CC[C@]12C (stereo not given in full),,36
